# Assay results from patent publication US20190133968A1, “Applications of benzophenones in preparation of drug” (SHANXI MEDICAL UNIVERSITY, priority 2016, published 2019).
# System: DN rats
# Assay: type II diabetic nephropathy (DN) rat model (high-sugar high-fat diet + streptozocin)
# Assay type: in vivo, SD (Sprague Dawley) rats
# Details: for BUN / CREA / Glycated hemoglobin / Urinary protein / mALB (microalbumin in urine) / ICAM-1 / IL-1β / IL-6 / MDA / NF-κB / SOD / T-AOC / TGF-β1 / TNF-α / VCAM-1 / Glucose (GLU) / HDL-C / LDL-C / TC / TG / UA / Kidney coefficient: gavage, 6 weeks; for Urinary protein / mALB (microalbumin in urine): 6-hour urine; for ICAM-1 / IL-1β / IL-6 / MDA / NF-κB / SOD / T-AOC / TGF-β1 / TNF-α / VCAM-1: renal tissues; for Glucose (GLU) / HDL-C / LDL-C / TC / TG / UA: serum; for Kidney coefficient: weights of two kidneys/body weight
# Experimental: The solid dispersions are prepared through a solvent method, comprising steps of: respectively precisely weighing LM49, PVPK30 and tween80 with a weight ratio of 1:5:1, and A8, PVPK30 and tween80 with a weight ratio of 1:4:1; dissolving with appropriate absolute ethyl alcohol, continuously stirring, and uniformly mixing; placing on the water bath at 60° C., evaporating and removing the absolute ethyl alcohol, and obtaining a viscous material; placing in the freezer at −20° C., and freezing for 2 hours; taking out from the freezer, then placing in the vacuum drying oven, and drying for 24 hours; after becoming embrittlement, smashing and sieving with a sieve of 80 meshes, and then placing in the dryer for storage.
# The healthy adult male SD rats (having a weight of 180-220 g) are fed with the high-sugar and high-fat diet for 4 weeks; the rats are fasting overnight; and streptozocin (STZ) of 40 mg/kg is intraperitoneally injected into the rats. The rats of normal control group are injected with the sodium citrate buffer of same volume; 72 hours later, the rats are fasting for 12 hours. […] During the administration period, the successfully established model rats are still fed with the high-sugar and high-fat diet, while the rats of the normal control group are fed with the normal diet.
# After administration for 6 weeks, 6-hour urine of the rats is collected with the metabolism cage.
# The rats are fasting overnight and anesthetized intraperitoneally, then the abdominal aorta blood thereof is drawn for measuring the related indexes. The two kidneys of each rat are washed with the normal saline; weights of the kidneys are recorded; and the kidney coefficient (weights of two kidneys/body weight) is calculated. The renal tissues (comprising the glomerulus and renal tubules) at the same part of the left kidney are cut lengthwise and immersed in the 10% neutral formalin for pathomorphology analysis, and the other parts of the left kidney are used for biochemical index measurement; the right kidney is used for mechanism research and stored in the freezer at −80° C.
# After successfully establishing the model rats, expect the normal control group (ten rats), the remaining rats are randomly divided into eight groups, wherein each group has twelve rats. The eight groups are respectively the model group, the LM49 solid dispersion low-dose group (with the drug concentration of 3 mg/kg), the LM49 solid dispersion medium-dose group (with the drug concentration of 9 mg/kg), the LM49 solid dispersion high-dose group (with the drug concentration of 27 mg/kg), the A8 solid dispersion low-dose group (with the drug concentration of 3 mg/kg), the A8 solid dispersion medium-dose group (with the drug concentration of 9 mg/kg), the A8 solid dispersion high-dose group (with the drug concentration of 27 mg/kg), and the captopril control group (with the drug concentration of 15 mg/kg).
# Administration Way: By Gavage.
# The rats of the normal control group and the model group are administrated with the normal saline of 1.0 ml/100 g; the rats of the positive control group, the LM49 solid dispersion high-dose, medium-dose and low-dose groups and the A8 solid dispersion high-dose, medium-dose and low-dose groups are respectively administrated with the drugs of different concentrations, and the administration volume is 1.0 ml/100 g.
# The solid dispersions are dissolved by the normal saline; and the rats of the positive control group are administrated with the 0.5% CMC-Na (sodium carboxymethyl cellulose) suspension.
# The rats are administrated seven days a week, for totally six weeks.
# The IBM SPSS Statistics 20 software is used for data processing, and the data is represented in x±s. The one-way analysis of variance (ANOVA) is adopted for comparison among the groups. According to the homogeneity test results of variance, if the variance is equal, the LSD (least significant difference) test is adopted; if the variance is unequal, the Dunnett's T3 test is adopted. […]
compound,measurement,setting,value
"O=C(c1cc(Br)ccc1O)c1cc(O)c(O)cc1Br [LM49, 2,5′-dibromo-4,5,2′-trihydroxyldiphenylmethanone]",BUN,"DN rats, high-dose 27 mg/kg",10.66 ± 2.52 mmol/L
same,CREA,"DN rats, high-dose 27 mg/kg",55.12 ± 4.05 µmol/L
same,Glycated hemoglobin,"DN rats, high-dose 27 mg/kg",8.10 ± 1.50%
same,Urinary protein,"DN rats, high-dose 27 mg/kg",2.82 ± 0.54^□□▴◯● mg/6 h
same,mALB (microalbumin in urine),"DN rats, high-dose 27 mg/kg",52.22 ± 7.46^□□▴▴ μg/6 h
same,ICAM-1,"DN rats, high-dose 27 mg/kg",282.88 ± 59.07 pg/mgprog
same,IL-1β,"DN rats, high-dose 27 mg/kg",121.69 ± 16.12 pg/mgprog
same,IL-6,"DN rats, high-dose 27 mg/kg",119.09 ± 11.51^□ pg/mgprog
same,MDA,"DN rats, high-dose 27 mg/kg",1.16 ± 0.19 nmol/mgprog
same,NF-κB,"DN rats, high-dose 27 mg/kg",215.39 ± 43.61^□□▴▴◯◯ pg/mgprog
same,SOD,"DN rats, high-dose 27 mg/kg",4.06 ± 0.78 U/mgprog
same,T-AOC,"DN rats, high-dose 27 mg/kg",1.37 ± 0.31 U/mgprog
same,TGF-β1,"DN rats, high-dose 27 mg/kg",30.58 ± 5.83^□□▴▴ pg/mgprot
same,TNF-α,"DN rats, high-dose 27 mg/kg",279.29 ± 41.89^□ pg/mgprog
same,VCAM-1,"DN rats, high-dose 27 mg/kg",26.85 ± 5.63 pg/mgprog
same,Glucose (GLU),"DN rats, high-dose 27 mg/kg",10.73 ± 2.89^□□▴◯ mmol/L
same,HDL-C,"DN rats, high-dose 27 mg/kg",1.17 ± 0.24 mmol/L
same,LDL-C,"DN rats, high-dose 27 mg/kg",1.61 ± 0.54^□□ mmol/L
same,TC,"DN rats, high-dose 27 mg/kg",3.00 ± 0.79^□□ mmol/L
same,TG,"DN rats, high-dose 27 mg/kg",0.54 ± 0.13^□□ mmol/L
same,UA,"DN rats, high-dose 27 mg/kg",29.41 ± 7.23^□□●● μmol/L
same,Kidney coefficient,"DN rats, high-dose 27 mg/kg",1.00 ± 0.09%
same,lesions of the renal tissues,"DN rats, kidney pathology (HE, Masson staining)",effectively reduce the lesions of the renal tissues
same,BUN,"DN rats, low-dose 3 mg/kg",11.59 ± 2.78 mmol/L
same,CREA,"DN rats, low-dose 3 mg/kg",54.11 ± 3.50 µmol/L
same,Glycated hemoglobin,"DN rats, low-dose 3 mg/kg",9.01 ± 0.61%
same,Urinary protein,"DN rats, low-dose 3 mg/kg",5.81 ± 1.42^□□ mg/6 h
same,mALB (microalbumin in urine),"DN rats, low-dose 3 mg/kg",143.47 ± 33.28^□□●● μg/6 h
same,ICAM-1,"DN rats, low-dose 3 mg/kg",384.02 ± 100.59 pg/mgprog
same,IL-1β,"DN rats, low-dose 3 mg/kg",158.77 ± 43.38 pg/mgprog
same,IL-6,"DN rats, low-dose 3 mg/kg",195.42 ± 2.34 pg/mgprog
same,MDA,"DN rats, low-dose 3 mg/kg",1.65 ± 0.25 nmol/mgprog
same,NF-κB,"DN rats, low-dose 3 mg/kg",2415.59 ± 515.30 pg/mgprog
same,SOD,"DN rats, low-dose 3 mg/kg",5.66 ± 1.87 U/mgprog
same,T-AOC,"DN rats, low-dose 3 mg/kg",1.52 ± 0.58 U/mgprog
same,TGF-β1,"DN rats, low-dose 3 mg/kg",100.46 ± 25.56 pg/mgprot
same,TNF-α,"DN rats, low-dose 3 mg/kg",573.35 ± 150.75 pg/mgprog
same,VCAM-1,"DN rats, low-dose 3 mg/kg",39.34 ± 10.56 pg/mgprog
same,Glucose (GLU),"DN rats, low-dose 3 mg/kg",19.94 ± 6.09^□□ mmol/L
same,HDL-C,"DN rats, low-dose 3 mg/kg",1.27 ± 0.12 mmol/L
same,LDL-C,"DN rats, low-dose 3 mg/kg",1.90 ± 0.54^□□ mmol/L
same,TC,"DN rats, low-dose 3 mg/kg",3.28 ± 0.59^□□ mmol/L
same,TG,"DN rats, low-dose 3 mg/kg",0.38 ± 0.10^□□ mmol/L
same,UA,"DN rats, low-dose 3 mg/kg",26.01 ± 6.54^□□●● μmol/L
same,Kidney coefficient,"DN rats, low-dose 3 mg/kg",1.08 ± 0.09%
same,BUN,"DN rats, medium-dose 9 mg/kg",10.97 ± 3.01 mmol/L
same,CREA,"DN rats, medium-dose 9 mg/kg",55.25 ± 1.01 µmol/L
same,Glycated hemoglobin,"DN rats, medium-dose 9 mg/kg",8.59 ± 0.85%
same,Urinary protein,"DN rats, medium-dose 9 mg/kg",5.29 ± 0.61^□□ mg/6 h
same,mALB (microalbumin in urine),"DN rats, medium-dose 9 mg/kg",125.38 ± 23.67^□□● μg/6 h
same,ICAM-1,"DN rats, medium-dose 9 mg/kg",334.79 ± 55.46 pg/mgprog
same,IL-1β,"DN rats, medium-dose 9 mg/kg",146.20 ± 16.12 pg/mgprog
same,IL-6,"DN rats, medium-dose 9 mg/kg",168.44 ± 30.33 pg/mgprog
same,MDA,"DN rats, medium-dose 9 mg/kg",1.92 ± 0.34 nmol/mgprog
same,NF-κB,"DN rats, medium-dose 9 mg/kg",1017.81 ± 239.12^□▴●● pg/mgprog
same,SOD,"DN rats, medium-dose 9 mg/kg",5.33 ± 1.01 U/mgprog
same,T-AOC,"DN rats, medium-dose 9 mg/kg",1.93 ± 0.43 U/mgprog
same,TGF-β1,"DN rats, medium-dose 9 mg/kg",53.60 ± 11.60^□● pg/mgprot
same,TNF-α,"DN rats, medium-dose 9 mg/kg",436.04 ± 84.54 pg/mgprog
same,VCAM-1,"DN rats, medium-dose 9 mg/kg",34.76 ± 5.04 pg/mgprog
same,Glucose (GLU),"DN rats, medium-dose 9 mg/kg",18.58 ± 2.71^□□ mmol/L
same,HDL-C,"DN rats, medium-dose 9 mg/kg",1.16 ± 0.21 mmol/L
same,LDL-C,"DN rats, medium-dose 9 mg/kg",1.51 ± 0.48^□□ mmol/L
same,TC,"DN rats, medium-dose 9 mg/kg",2.71 ± 0.49^□□ mmol/L
same,TG,"DN rats, medium-dose 9 mg/kg",0.30 ± 0.11^□□ mmol/L
same,UA,"DN rats, medium-dose 9 mg/kg",25.63 ± 5.83^□□●● μmol/L
same,Kidney coefficient,"DN rats, medium-dose 9 mg/kg",1.09 ± 0.14%
same,effect on resisting the DN of rats,overall summary in words,obvious effect on resisting the DN of rats
